Reference: article PMC7881240, “Calmodulin regulates the olfactory performance in Drosophila melanogaster” (Scientific Reports, 2021)

Legend:
Orco [1] = target: T1, Orco (Drosophila melanogaster, UniProt Q9VNB5); assay: GCaMP6f Ca2+ imaging of OSNs, concentration-response
T1 construct: native OrX/OrcoWT in olfactory sensory neurons, ex vivo antenna; with OrX
T1 sequence (Q9VNB5 1-486): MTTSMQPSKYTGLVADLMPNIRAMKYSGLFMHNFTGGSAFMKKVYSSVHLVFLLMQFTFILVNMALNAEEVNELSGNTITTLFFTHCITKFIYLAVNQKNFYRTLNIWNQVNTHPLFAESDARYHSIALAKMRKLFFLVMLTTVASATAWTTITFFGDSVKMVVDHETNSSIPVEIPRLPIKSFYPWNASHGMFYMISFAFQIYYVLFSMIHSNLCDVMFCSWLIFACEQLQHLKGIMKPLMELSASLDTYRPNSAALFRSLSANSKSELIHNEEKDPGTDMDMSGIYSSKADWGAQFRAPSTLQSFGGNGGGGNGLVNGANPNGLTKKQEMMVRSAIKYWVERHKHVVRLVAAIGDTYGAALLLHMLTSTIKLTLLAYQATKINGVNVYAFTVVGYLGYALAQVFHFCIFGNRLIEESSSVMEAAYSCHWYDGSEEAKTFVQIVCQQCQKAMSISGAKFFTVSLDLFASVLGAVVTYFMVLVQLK

Orco [2] = target: T2, Orco (Drosophila melanogaster, UniProt Q9VNB5, K339N); assay: as above
T2 construct: OrX/OrcoK339N in olfactory sensory neurons (Orco1 null background), ex vivo antenna; with OrX
T2 sequence (Q9VNB5 whole entry K339N): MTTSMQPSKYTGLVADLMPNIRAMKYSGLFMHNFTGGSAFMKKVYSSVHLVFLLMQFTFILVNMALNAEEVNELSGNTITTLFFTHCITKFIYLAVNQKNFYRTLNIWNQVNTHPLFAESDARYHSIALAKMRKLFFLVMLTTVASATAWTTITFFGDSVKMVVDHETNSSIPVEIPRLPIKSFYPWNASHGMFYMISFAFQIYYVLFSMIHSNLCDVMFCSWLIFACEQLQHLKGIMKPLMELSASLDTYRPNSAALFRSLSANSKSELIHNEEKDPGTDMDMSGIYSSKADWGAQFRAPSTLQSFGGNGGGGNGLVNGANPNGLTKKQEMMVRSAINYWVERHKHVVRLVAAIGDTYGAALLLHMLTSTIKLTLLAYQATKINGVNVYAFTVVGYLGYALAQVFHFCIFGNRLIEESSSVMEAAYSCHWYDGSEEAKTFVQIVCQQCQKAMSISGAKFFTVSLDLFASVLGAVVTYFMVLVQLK

Or22a = target: T3, Or22a (Drosophila melanogaster, UniProt P81909); assay: GCaMP6f Ca2+ imaging of Or22a OSNs, concentration-response
T3 construct: Or22a/OrcoWT in Or22a-expressing olfactory sensory neurons, ex vivo antenna; with Orco
T3 sequence (P81909 1-397): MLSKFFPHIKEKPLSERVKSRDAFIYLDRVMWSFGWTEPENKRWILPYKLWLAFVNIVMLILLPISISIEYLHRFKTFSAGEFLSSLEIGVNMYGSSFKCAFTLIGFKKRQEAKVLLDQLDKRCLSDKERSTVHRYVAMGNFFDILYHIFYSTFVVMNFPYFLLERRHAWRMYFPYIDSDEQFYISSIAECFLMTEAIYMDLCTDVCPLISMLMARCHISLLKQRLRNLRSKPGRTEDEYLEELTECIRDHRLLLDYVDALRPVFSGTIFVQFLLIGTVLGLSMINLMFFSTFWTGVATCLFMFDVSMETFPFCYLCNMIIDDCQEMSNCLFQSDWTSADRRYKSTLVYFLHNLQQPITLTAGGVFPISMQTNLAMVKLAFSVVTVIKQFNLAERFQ
T3 sequence (Q9VNB5 1-486 partner): T1 sequence (Q9VNB5 1-486)

CCc1ccc(NC(=O)CSc2nnc(-c3cccnc3)n2CC)cc1 [VUAA1, 2-(4-Ethyl-5-(pyridin-3-yl)-4H-1,2,4-triazol-3-ylthio)-N-(4-ethylphenyl) acetamide]
EC50 (Orco [1]): 88 µM | EC50 (Orco [2]): 85 µM

CCCCCC(=O)OCC [ethyl hexanoate]
EC50 (Or22a): 13 µM
